Reference: ChEMBL document CHEMBL1148691, “Inhibitors of hepatitis C virus NS3.4A protease. Effect of P4 capping groups on inhibitory potency and pharmacokinetics” (Bioorg Med Chem Lett, 2007)

Tests used:
[1] = Inhibition of HCV NS3 4A protease; set-up: species or system Hepacivirus hominis
[2] = tested on: Hepatitis C virus; assay: Inhibition of HCV replicon RNA production in HUh7 cells; type: functional, organism-based, Hepacivirus hominis; conditions: Huh-7
[3] = Cytotoxicity against Huh7 cells by MTS assay; type: cell-based, Huh-7; conditions: human
[4] = Selectivity index, ratio of CC50 for Huh7cells to IC50 for HCV; type: functional
[5] = tested on: Mus musculus; assay: AUC(0 to 8 hrs) in CD1 mouse liver at 50 mg/kg, po; type: ADME, organism-based; set-up: dose 50 mg/kg, route oral; conditions: in vivo, 6 h
[6] = tested on: Mus musculus; assay: AUC(0 to 8 hrs) in CD1 mouse plasma at 50 mg/kg, po; type: ADME, organism-based; set-up: dose 50 mg/kg, route oral; conditions: in vivo, 6 h
[7] = tested on: Liver; assay: Drug level in CD1 mouse liver at 50 mg/kg, po; type: ADME, organism-based; set-up: dose 50 mg/kg, route oral; conditions: in vivo, read-out: Activity
[8] = tested on: Plasma; assay: Drug level in CD1 mouse plasma at 50 mg/kg, po; type: ADME, organism-based; set-up: dose 50 mg/kg, route oral; conditions: in vivo
[9] = Ratio of drug level in CD1 mouse liver to IC50 for HCV; type: functional, tissue-based

Compound	Ki [1] [nM]	IC50 [2] [nM]	CC50 [3] [nM]	Selectivity index [4]	AUC [5] [µM·h]	AUC [6] [µM·h]	concentration [7] [nM]	concentration [8] [nM]	Ratio [9]
CCC[C@H](NC(=O)[C@@H]1[C@H]2CCC[C@H]2CN1C(=O)[C@@H](NC(=O)[C@@H](NC(=O)c1cnccn1)C1CCCCC1)C(C)(C)C)C(=O)C(=O)NC1CC1	40	350	82000	230	19	3	2400	370	54
CCC[C@H](NC(=O)[C@@H]1C[C@@H]2CCCC[C@@H]2N1C(=O)[C@@H](NC(=O)[C@@H](NC(=O)c1cccnc1)C1CCCCC1)C(C)(C)C)C(=O)C(=O)NC1CC1	240	1700	> 100000	> 58					
CCC[C@H](NC(=O)[C@@H]1C[C@@H]2CCCC[C@@H]2N1C(=O)[C@@H](NC(=O)[C@H](C1CCCCC1)N1C(=O)c2ccccc2C1=O)C(C)(C)C)C(=O)C(=O)NC1CC1	370	> 3000	> 100000						
CCC[C@H](NC(=O)[C@@H]1C[C@@H]2CCCC[C@@H]2N1C(=O)[C@@H](NC(=O)[C@@H](NC(=O)c1ncc[nH]1)C1CCCCC1)C(C)(C)C)C(=O)C(=O)NC1CC1	120	230	> 100000	> 442	0.47	0.05	60	10	0.26
CCC[C@H](NC(=O)[C@@H]1[C@H]2CCC[C@H]2CN1C(=O)[C@@H](NC(=O)[C@@H](NC(=O)c1ncc[nH]1)C1CCCCC1)C(C)(C)C)C(=O)C(=O)NC1CC1	30	200			10.5	0.36	1300	40	52
CCC[C@H](NC(=O)[C@@H]1C[C@@H]2CCCC[C@@H]2N1C(=O)[C@@H](NC(=O)[C@@H](NC(=O)[C@@H]1Cc2ccccc2N1)C1CCCCC1)C(C)(C)C)C(=O)C(=O)NC1CC1	320	1100	> 100000	> 90					
CCC[C@H](NC(=O)[C@@H]1C[C@@H]2CCCC[C@@H]2N1C(=O)[C@@H](NC(=O)[C@@H](NC(=O)C(=O)NC(C)C)C1CCCCC1)C(C)(C)C)C(=O)C(=O)NC1CC1	160	400	> 100000	> 249					
CCC[C@H](NC(=O)[C@@H]1C[C@@H]2CCCC[C@@H]2N1C(=O)[C@@H](NC(=O)[C@@H](NC(=O)c1nccn1C)C1CCCCC1)C(C)(C)C)C(=O)C(=O)NC1CC1	1200	> 3000	> 100000		2.1	1.3	260	170	
CCC[C@H](NC(=O)[C@@H]1C[C@@H]2CCCC[C@@H]2N1C(=O)[C@@H](NC(=O)[C@@H](NC(=O)c1ccc[nH]1)C1CCCCC1)C(C)(C)C)C(=O)C(=O)NC1CC1	90	500	> 100000	> 201	1.3	0.36	170	40	0.34
CCC[C@H](NC(=O)[C@@H]1C[C@@H]2CCCC[C@@H]2N1C(=O)[C@@H](NC(=O)[C@@H](NC(=O)c1ccoc1)C1CCCCC1)C(C)(C)C)C(=O)C(=O)NC1CC1	240	1400	> 100000	> 71					
CCC[C@H](NC(=O)[C@@H]1C[C@@H]2CCCC[C@@H]2N1C(=O)[C@@H](NC(=O)[C@@H](NC(=O)C1(O)CCCC1)C1CCCCC1)C(C)(C)C)C(=O)C(=O)NC1CC1	640	1600	> 100000	> 64					
CCC[C@H](NC(=O)[C@@H]1C[C@@H]2CCCC[C@@H]2N1C(=O)[C@@H](NC(=O)[C@@H](NC(=O)c1cnccn1)C1CCCCC1)C(C)(C)C)C(=O)C(=O)NC1CC1	150	1100	47000	43	2.9	1.5	360	180	0.33
CCC[C@H](NC(=O)[C@@H]1C[C@@H]2CCCC[C@@H]2N1C(=O)[C@@H](NC(=O)[C@@H](NC(=O)C(=O)NC1CC1)C1CCCCC1)C(C)(C)C)C(=O)C(=O)NC1CC1	110	270	> 100000	> 375					
CCC[C@H](NC(=O)[C@@H]1C[C@@H]2CCCC[C@@H]2N1C(=O)[C@@H](NC(=O)[C@@H](NC(=O)c1ccccn1)C1CCCCC1)C(C)(C)C)C(=O)C(=O)NC1CC1	520	1900	> 100000	> 52					
CCC[C@H](NC(=O)[C@@H]1C[C@@H]2CCCC[C@@H]2N1C(=O)[C@@H](NC(=O)[C@@H](NC(=O)c1cnc2ccccc2n1)C1CCCCC1)C(C)(C)C)C(=O)C(=O)NC1CC1	440	1200	> 100000	> 81					
CCC[C@H](NC(=O)[C@@H]1C[C@@H]2CCCC[C@@H]2N1C(=O)[C@@H](NC(=O)[C@@H](NC(=O)c1cc([N+](=O)[O-])c[nH]1)C1CCCCC1)C(C)(C)C)C(=O)C(=O)NC1CC1	50	370	> 100000	> 270	0.06		10		0.03
CCC[C@H](NC(=O)[C@@H]1C[C@@H]2CCCC[C@@H]2N1C(=O)[C@@H](NC(=O)[C@@H](NC(=O)c1cc2cc(F)ccc2[nH]1)C1CCCCC1)C(C)(C)C)C(=O)C(=O)NC1CC1	120	490	> 100000	> 203					
CCC[C@H](NC(=O)[C@@H]1C[C@@H]2CCCC[C@@H]2N1C(=O)[C@@H](NC(=O)[C@@H](NC(=O)C(=O)NCc1ccccc1)C1CCCCC1)C(C)(C)C)C(=O)C(=O)NC1CC1	140	260	> 100000	> 380					
